The numbers were not newly measured in US9585827B2, “Kits comprising a beverage composition and information for use” (The Procter & Gamble Company, priority 2000, dated 2017), which cites them from elsewhere.

The conditions of series [1]: Reussner et al. 1975; phosphate added to low pH powdered beverage compositions.
The next series relates to dental caries. The conditions noted are these: Städtler et al. 1996; toothpaste formulations of near-neutral pH.

In the case of `O=P1([O-])OP(=O)([O-])OP(=O)([O-])OP(=O)([O-])OP(=O)([O-])OP(=O)([O-])O1.[Na+].[Na+].[Na+].[Na+].[Na+].[Na+]` [sodium hexametaphosphate], in series [1], the “protective effect against molar erosion” value is “did not produce significant protective effects”.

Consider `O=P1([O-])OP(=O)([O-])OP(=O)([O-])O1.[Na+].[Na+].[Na+]` [trimetaphosphate], for which the “effect against dental caries” value in the series on dental caries is given as “may be effective against dental caries”.
